Data as given in publication PMC8909834, “An Orally Bioavailable and Highly Efficacious Inhibitor of CDK9/FLT3 for the Treatment of Acute Myeloid Leukemia” (Cancers, 2022).

Tested on: MV4-11 tumor xenografts
Assay: In vivo xenograft study
Conditions: for MST (median survival time): vehicle MST = 38 days; for mice with unmeasurable tumor size (zero tumor volume): day 29, n = 7
Experimental: In vivo xenograft study. The in vivo efficacy of CDDD11-8 on tumors developed in mice from AML cells was evaluated by engrafting 5 × 10^6 MV4-11 cells suspended in a 1:1 mixture of Matrigel^TM (Becton Dickinson, Corning, NY, USA) and serum-free medium (100 µL) subcutaneously into the right flank of female BALB/c nude (nu/nu) mice (6–7 weeks). When the tumor reached a volume of 100–200 mm^3, mice were randomized into 3 groups (n = 7). Mice in G1 received vehicle (acetate buffer at pH 4.74), while mice in G2 and G3 received CDDD11-8, at 75 and 125 mg/kg, respectively. Both CDDD11-8 and vehicle were administered orally, once a day for 28 days. Clinical signs of toxicity were observed daily; body weights were measured daily during the dosing period and every other day thereafter. Tumor dimensions, i.e., length (L) and width (W), were measured every other day using Vernier calipers. The tumor volume was calculated using the formula 0.52 × L × W^2, where L and W are perpendicularly measured diameters and L ≥ W. Mice were humanely killed by CO2 asphyxiation when the tumor volume reached 1500 mm^3 or the percent loss of body weight exceeded 15%, or the study was completed.
Data were analyzed statistically using GraphPad Prism version 7. Descriptive statistics (frequency, mean, percentage) were used to report tumor volume, body weights, daily change in body weights from day 1 of dosing, and the ratio of tumor volume between treatment and control groups (T/C). Statistical differences in tumor volume between treated and control groups were analyzed using two-way ANOVA, where days on which the tumor volume was measured and treatments were the two independent factors, with a two-tailed significance cut-off level of p < 0.05. Tumor growth inhibition (TGI) was calculated as %TGI = [((VCD − VCB) − (VTD − VTB))/(VCD − VCB)] × 100, where VCD and VTD were the tumor volumes of the vehicle and treated groups on the calculated day, respectively, and VCB and VTB were the tumor volumes of the vehicle and treated groups at baseline (day 1). Kaplan–Meier survival analysis was performed, and group comparisons were done with the Gehan–Breslow–Wilcoxon test with Bonferroni correction method.

Cc1cnc(N[C@H]2CC[C@H](N)CC2)nc1-c1cnc2ccc(-c3ccccc3)cn12 [CDDD11-8]
day from which inhibition of tumor growth was statistically significant vs vehicle (75 mg/kg PO QD): 9 days | increase in the life span (75 mg/kg PO QD 28 days): 29% | MST (median survival time) (75 mg/kg PO QD 28 days): 49 days | T/C% (75 mg/kg PO QD, day 1): 101% | % TGI (75 mg/kg PO QD, day 3): 92% | T/C% (75 mg/kg PO QD, day 3): 75% | % TGI (75 mg/kg PO QD, day 5): 101% | T/C% (75 mg/kg PO QD, day 5): 60% | % TGI (75 mg/kg PO QD, day 7): 95% | T/C% (75 mg/kg PO QD, day 7): 50% | % TGI (75 mg/kg PO QD, day 9): 115% | T/C% (75 mg/kg PO QD, day 9): 32% | % TGI (75 mg/kg PO QD, day 11): 121% | T/C% (75 mg/kg PO QD, day 11): 22% | % TGI (75 mg/kg PO QD, day 13): 127% | T/C% (75 mg/kg PO QD, day 13): 12% | % TGI (75 mg/kg PO QD, day 15): 129% | T/C% (75 mg/kg PO QD, day 15): 8% | % TGI (75 mg/kg PO QD, day 17): 128% | T/C% (75 mg/kg PO QD, day 17): 6% | % TGI (75 mg/kg PO QD, day 19): 125% | T/C% (75 mg/kg PO QD, day 19): 5% | % TGI (75 mg/kg PO QD, day 21): 119% | T/C% (75 mg/kg PO QD, day 21): 5% | % TGI (75 mg/kg PO QD, day 23): 112% | T/C% (75 mg/kg PO QD, day 23): 5% | % TGI (75 mg/kg PO QD, day 25): 105% | T/C% (75 mg/kg PO QD, day 25): 9% | % TGI (75 mg/kg PO QD, day 27): 96% | T/C% (75 mg/kg PO QD, day 27): 15% | % TGI (75 mg/kg PO QD, day 29): 92% | mice with unmeasurable tumor size (zero tumor volume) (75 mg/kg PO QD): one | animals with tumor regression (75 mg/kg PO QD, starting on day 9, n = 7): two out of seven animals | day from which inhibition of tumor growth was statistically significant vs vehicle (125 mg/kg PO QD): 7 days | increase in the life span (125 mg/kg PO QD 28 days): 45% | MST (median survival time) (125 mg/kg PO QD 28 days): 55 days | T/C% (125 mg/kg PO QD, day 1): 102% | % TGI (125 mg/kg PO QD, day 3): 127% | T/C% (125 mg/kg PO QD, day 3): 66% | % TGI (125 mg/kg PO QD, day 5): 133% | T/C% (125 mg/kg PO QD, day 5): 47% | % TGI (125 mg/kg PO QD, day 7): 122% | T/C% (125 mg/kg PO QD, day 7): 36% | % TGI (125 mg/kg PO QD, day 9): 142% | T/C% (125 mg/kg PO QD, day 9): 16% | % TGI (125 mg/kg PO QD, day 11): 137% | T/C% (125 mg/kg PO QD, day 11): 12% | % TGI (125 mg/kg PO QD, day 13): 139% | T/C% (125 mg/kg PO QD, day 13): 4% | % TGI (125 mg/kg PO QD, day 15): 136% | T/C% (125 mg/kg PO QD, day 15): 3% | % TGI (125 mg/kg PO QD, day 17): 133% | T/C% (125 mg/kg PO QD, day 17): 2% | % TGI (125 mg/kg PO QD, day 19): 130% | T/C% (125 mg/kg PO QD, day 19): 2% | % TGI (125 mg/kg PO QD, day 21): 123% | T/C% (125 mg/kg PO QD, day 21): 2% | % TGI (125 mg/kg PO QD, day 23): 117% | T/C% (125 mg/kg PO QD, day 23): 1% | % TGI (125 mg/kg PO QD, day 25): 114% | T/C% (125 mg/kg PO QD, day 25): 1% | % TGI (125 mg/kg PO QD, day 27): 112% | T/C% (125 mg/kg PO QD, day 27): 1% | % TGI (125 mg/kg PO QD, day 29): 109% | animals with tumor regression still maintained (125 mg/kg PO QD, day 29): six out of seven mice | mice with unmeasurable tumor size (zero tumor volume) (125 mg/kg PO QD): three | animals with tumor regression (125 mg/kg PO QD, from day 7, n = 7): all the mice | tolerability (75 and 125 mg/kg PO QD 28 days, tumor-bearing mice): well tolerated
